Test results as given in patent US20120165244A1, “METHODS FOR BINDING LEWIS Y ANTIGEN” (priority 2008, published 2012).

Legend:
[1] = tested on: K. pneumoniae; assay: Bacterial agglutination, FITC-labeled K. pneumoniae; details: 0.2 M mannose or 5 mM EDTA
Description: (§1) K. pneumoniae and E. coli DH5α (BCRC) were washed twice in 0.1 M sodium bicarbonate buffer (pH 9.6) and incubated with 0.1 mg/mL fluorescein isothiocyanate (FITC) at 37° C. in the dark. Each of 20 μg/mL of rTMD1, non-tagged rTMD1, mammalian rTMD1, and recombinant TM domains 2 and 3 (rTMD23) was co-incubated with FITC-labeled bacteria (1×10^5CFU/mL) in buffer (20 mM Tris, pH 7.4, 0.15 M NaCl, 5 mM CaCl2, 1 mg/mL BSA) with or without 0.2 M mannose or 5 mM EDTA. Samples were individually placed on a glass slide and fluorescently-labeled bacteria were observed microscopically to evaluate agglutination.

[2] = LPS binding assay (coated wells); parameters: species or system E. coli
Description: K. pneumoniae (3×10^5 CFU/well), E. coli O111:B4 smooth-type LPS (5 μg/well), or bovine serum albumin (BSA, 5 μg/well) in 100 μL of bicarbonate buffer (pH 9.6) were coated onto wells of high-binding microtiter plate (Corning Costar, Cambridge, Mass.). Nonspecific binding was blocked with binding buffer (20 mM Tris-HCl, pH 7.4, 0.15 M NaCl, 5 mM CaCl2) containing 50 mg/mL BSA. Various concentrations of rTMD proteins without or with CD14 (10 μg/mL; R&D Systems) in binding buffer containing 1 mg/mL BSA were added to wells and incubated for 2 hours. In some experiments, 0.2 M mannose, 5 mM EDTA, or Le^y were included in the binding buffer to compete with LPS and rTMD1 binding. Antibody against the c-Myc epitope of the rTMD proteins was added to wells and incubated for 2 hours, and peroxidase-labeled secondary antibody followed. Binding of rTMD proteins was detected by measuring absorbance at 450 nm.

[3] = tested on: E. coli DH5α; assay: Bacterial agglutination, FITC-labeled E. coli DH5α; details: 0.2 M mannose or 5 mM EDTA
Description: as §1

[4] = molecular target: T1, HMGB1 and rTMD1 interaction (Homo sapiens, UniProt P07204); assay: Effect of Le^y on the binding of HMGB1 with rTMD1
T1 construct: TMD1 (residues Ala^1-Ala^155); 6xHis (C); enterokinase cutting site (internal); made in house
T1 sequence (P07204 19-173): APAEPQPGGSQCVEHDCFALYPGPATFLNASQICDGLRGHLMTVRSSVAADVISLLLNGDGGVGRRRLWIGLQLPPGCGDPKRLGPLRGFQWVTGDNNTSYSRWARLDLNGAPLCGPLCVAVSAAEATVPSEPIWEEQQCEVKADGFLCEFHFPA
T1 sequence (P09429 whole entry partner): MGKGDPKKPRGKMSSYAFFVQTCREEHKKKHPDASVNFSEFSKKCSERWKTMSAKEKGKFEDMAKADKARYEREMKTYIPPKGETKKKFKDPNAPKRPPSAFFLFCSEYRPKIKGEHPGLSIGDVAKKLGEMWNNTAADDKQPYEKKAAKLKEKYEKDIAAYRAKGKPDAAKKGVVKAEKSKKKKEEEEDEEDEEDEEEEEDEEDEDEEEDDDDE

[5] = tested on: rTMD1; assay: Effect of Le^y on the blocking effect of rTMD1 on LPS-induced signaling pathways (Western blot); type: cell-based; details: rTMD1 20 μg/mL, LPS 100 ng/mL
Description: rTMD1 (0-50 μg/mL, equals 0-2.18 nmole/mL) pre-incubated without or with Escherichia coli (E. coli) LPS (LPS O111:B4, Sigma-Aldrich) in the absence or presence of Lewis Y (Le^y; Dextra Laboratories, Reading, UK) for 30 minutes was used to stimulate THP-1 or RAW 264.7 cells. Incubation period included 15 minutes for pIκB and IκB (B-9 and C-21, Santa Cruz Biotechnology, Santa Cruz, Calif., unless otherwise noted), 20 minutes for p38 (C-20) and pp38 (D-8), 30 minutes for ERK1/2 (K-23), pERK1/2 (E-4), lamin B2 (E-3, Zymed Laboratories, San Francisco, Calif.), NF-κB p50 (C-19) and NF-κB p65 nuclear translocation (C-20), and 24 hours for iNOS expression using a specific antibody (N-20).

[6] = molecular target: T2, rTMD1 (Homo sapiens, UniProt P07204); assay: rTMD1 ligand analysis (AlphaScreen); type: binding; details: mammalian- or Pichia-expressed rTMD1
T2 construct: TMD1 (residues Ala^1-Ala^155); made in house
T2 sequence (P07204 19-173): as the sequence (P07204 19-173) above
Description: Biotin-polyacrylamide (Biotin-PAA)-sugars (GlycoTech, Rockville, Mass.), rTMD1, rabbit anti-mouse IgG antibody (Zymed), mouse anti-6× His tag antibody (Abcam, Cambridge, UK), and streptavidin-coated donor and protein A conjugated acceptor beads (PerkinElmer, Boston, Mass.) were diluted with assay buffer containing 25 mM Tris (pH 7.0), 25 mM CaCl2, and 1 mg/mL BSA to appropriate concentrations. The anti-6× His tag antibody, rabbit anti-mouse IgG antibody, and acceptor beads were incubated with assay buffer for 1 hour at 25° C. before use (as the acceptor mixture). Biotin-PAA-sugars, rTMD1, and donor beads were separately added to wells of ProxiPlate-384 assay plates (PerkinElmer) and incubated at 25° C. for 1 hour. An aliquot of the acceptor mixture was then added to the wells and incubated at 25° C. for another 2 hours. The results were read on a PerkinElmer Envision instrument using the AlphaScreen program. All the procedures and incubations were carried out in the dark.

Row | Compound | effect on rTMD1 agglutination activity, K. pneumoniae [1] | effect on binding of rTMD1 to LPS ([2]; 0.2 M mannose or 5 mM EDTA, rTMD1 50 μg/mL) | effect on rTMD1 agglutination activity, E. coli DH5α [3] | effect on HMGB1 and rTMD1 interaction [4] | effect on binding of rTMD1 with LPS ([2]; various concentrations of Le^y, FIG. 6B) | effect on blocking effects of rTMD1 on LPS-induced ERK1/2 phosphorylation, IκBα degradation, and NF-κB p50 and p65 nuclear translocation [5] | rTMD1 affinity of carbohydrate ligand [6]
1 | O=C(O)CN(CCN(CC(=O)O)CC(=O)O)CC(=O)O [EDTA, reference compound] | attenuated | inhibited | attenuated | – | – | – | –
2 | Fucα1-2Galβ1-4(Fucα1-3)GlcNAc [Le^y] | – | – | – | could not abrogate | specifically inhibited | dose-dependently neutralize | specific ligand
